Measured values from PubChem BioAssay (NCI).
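48-hour exposure; five concentrations; linearly interpolated endpoints. TGI is the concentration that stops growth completely.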

What was measured:
Test in all cases: NCI-60 cell line screen, 48 h
786-0 renal = test system: 786-0 renal
A498 renal = test system: A498 renal
A549 NSCLC = test system: A549 NSCLC
ACHN renal = test system: ACHN renal
BT-549 breast = test system: BT-549 breast
CAKI-1 renal = test system: CAKI-1 renal
COLO 205 colon = test system: COLO 205 colon
DU-145 prostate = test system: DU-145 prostate
EKVX NSCLC = test system: EKVX NSCLC
HCC-2998 colon = test system: HCC-2998 colon
HCT-116 colon = test system: HCT-116 colon
HCT-15 colon = test system: HCT-15 colon
HOP-62 NSCLC = test system: HOP-62 NSCLC
HOP-92 NSCLC = test system: HOP-92 NSCLC
HS 578T breast = test system: HS 578T breast
HT29 colon = test system: HT29 colon
IGROV1 ovarian = test system: IGROV1 ovarian
K-562 leukemia = test system: K-562 leukemia
KM12 colon = test system: KM12 colon
M14 melanoma = test system: M14 melanoma
MALME-3M melanoma = test system: MALME-3M melanoma
MCF7 breast = test system: MCF7 breast
MDA-MB-231 breast = test system: MDA-MB-231 breast
MDA-MB-435 = test system: MDA-MB-435
MDA-N = test system: MDA-N
MOLT-4 leukemia = test system: MOLT-4 leukemia
NCI-H226 lung = test system: NCI-H226 lung
NCI-H23 lung = test system: NCI-H23 lung
NCI-H460 lung = test system: NCI-H460 lung
NCI-H522 lung = test system: NCI-H522 lung
NCI/ADR-RES ovarian = test system: NCI/ADR-RES ovarian
OVCAR-3 ovarian = test system: OVCAR-3 ovarian
OVCAR-4 ovarian = test system: OVCAR-4 ovarian
OVCAR-5 ovarian = test system: OVCAR-5 ovarian
OVCAR-8 ovarian = test system: OVCAR-8 ovarian
PC-3 prostate = test system: PC-3 prostate
RPMI-8226 leukemia = test system: RPMI-8226 leukemia
RXF 393 renal = test system: RXF 393 renal
SF-268 CNS = test system: SF-268 CNS
SF-295 CNS = test system: SF-295 CNS
SF-539 CNS = test system: SF-539 CNS
SK-MEL-2 melanoma = test system: SK-MEL-2 melanoma
SK-MEL-28 melanoma = test system: SK-MEL-28 melanoma
SK-MEL-5 melanoma = test system: SK-MEL-5 melanoma
SK-OV-3 ovarian = test system: SK-OV-3 ovarian
SN12C renal = test system: SN12C renal
SNB-19 CNS = test system: SNB-19 CNS
SNB-75 CNS = test system: SNB-75 CNS
SR leukemia = test system: SR leukemia
SW-620 colon = test system: SW-620 colon
T-47D breast = test system: T-47D breast
TK-10 renal = test system: TK-10 renal
U251 CNS = test system: U251 CNS
UACC-257 melanoma = test system: UACC-257 melanoma
UACC-62 melanoma = test system: UACC-62 melanoma
UO-31 renal = test system: UO-31 renal
CCRF-CEM leukemia = test system: CCRF-CEM leukemia
HL-60(TB) leukemia = test system: HL-60(TB) leukemia
LOX IMVI melanoma = test system: LOX IMVI melanoma

## CC1=c2c(oc3cc(O)c(Nc4c(C)cc(O)cc4O)c(C)c23)=CC(=O)C1=Nc1c(C)cc(O)cc1O
786-0 renal
  TGI: > 100 µM
A498 renal
  TGI: > 100 µM
A549 NSCLC
  TGI: > 100 µM
ACHN renal
  TGI: > 100 µM
BT-549 breast
  TGI: > 100 µM
CAKI-1 renal
  TGI: > 100 µM
COLO 205 colon
  TGI: 42.1 µM
DU-145 prostate
  TGI: > 100 µM
EKVX NSCLC
  TGI: > 100 µM
HCC-2998 colon
  TGI: 55.7 µM
HCT-116 colon
  TGI: 68.5 µM
HCT-15 colon
  TGI: > 100 µM
HOP-62 NSCLC
  TGI: > 100 µM
HOP-92 NSCLC
  TGI: > 100 µM
HS 578T breast
  TGI: > 100 µM
HT29 colon
  TGI: 94.9 µM
IGROV1 ovarian
  TGI: > 100 µM
K-562 leukemia
  TGI: > 100 µM
KM12 colon
  TGI: 94 µM
M14 melanoma
  TGI: 85.3 µM
MALME-3M melanoma
  TGI: 54.3 µM
MCF7 breast
  TGI: > 100 µM
MDA-MB-231 breast
  TGI: > 100 µM
MDA-MB-435
  TGI: 33.5 µM
MDA-N
  TGI: 40 µM
MOLT-4 leukemia
  TGI: > 100 µM
NCI-H226 lung
  TGI: > 100 µM
NCI-H23 lung
  TGI: 50.4 µM
NCI-H460 lung
  TGI: > 100 µM
NCI-H522 lung
  TGI: 63.1 µM
NCI/ADR-RES ovarian
  TGI: > 100 µM
OVCAR-3 ovarian
  TGI: 55.3 µM
OVCAR-4 ovarian
  TGI: > 100 µM
OVCAR-5 ovarian
  TGI: > 100 µM
OVCAR-8 ovarian
  TGI: > 100 µM
PC-3 prostate
  TGI: > 100 µM
RPMI-8226 leukemia
  TGI: > 100 µM
RXF 393 renal
  TGI: > 100 µM
SF-268 CNS
  TGI: > 100 µM
SF-295 CNS
  TGI: 70.1 µM
SF-539 CNS
  TGI: 56.3 µM
SK-MEL-2 melanoma
  TGI: > 100 µM
SK-MEL-28 melanoma
  TGI: > 100 µM
SK-MEL-5 melanoma
  TGI: 35.1 µM
SK-OV-3 ovarian
  TGI: > 100 µM
SN12C renal
  TGI: 73.7 µM
SNB-19 CNS
  TGI: > 100 µM
SNB-75 CNS
  TGI: 88.3 µM
SR leukemia
  TGI: > 100 µM
SW-620 colon
  TGI: > 100 µM
T-47D breast
  TGI: > 100 µM
TK-10 renal
  TGI: > 100 µM
U251 CNS
  TGI: > 100 µM
UACC-257 melanoma
  TGI: > 100 µM
UACC-62 melanoma
  TGI: > 100 µM
UO-31 renal
  TGI: > 100 µM

## CCOC(=O)c1nc2cc(C(F)(F)F)ccc2nc1Nc1ccc(OC)c(OC)c1
786-0 renal
  TGI: > 100 µM
A498 renal
  TGI: > 100 µM
A549 NSCLC
  TGI: > 100 µM
ACHN renal
  TGI: > 100 µM
BT-549 breast
  TGI: > 100 µM
CAKI-1 renal
  TGI: > 100 µM
CCRF-CEM leukemia
  TGI: > 100 µM
COLO 205 colon
  TGI: > 100 µM
DU-145 prostate
  TGI: > 100 µM
EKVX NSCLC
  TGI: > 100 µM
HCC-2998 colon
  TGI: > 100 µM
HCT-116 colon
  TGI: > 100 µM
HCT-15 colon
  TGI: > 100 µM
HL-60(TB) leukemia
  TGI: > 100 µM
HOP-62 NSCLC
  TGI: > 100 µM
HOP-92 NSCLC
  TGI: > 100 µM
HS 578T breast
  TGI: > 100 µM
HT29 colon
  TGI: > 100 µM
IGROV1 ovarian
  TGI: > 100 µM
K-562 leukemia
  TGI: > 100 µM
KM12 colon
  TGI: > 100 µM
LOX IMVI melanoma
  TGI: > 100 µM
M14 melanoma
  TGI: > 100 µM
MALME-3M melanoma
  TGI: > 100 µM
MCF7 breast
  TGI: > 100 µM
MDA-MB-231 breast
  TGI: > 100 µM
MDA-MB-435
  TGI: > 100 µM
MDA-N
  TGI: > 100 µM
MOLT-4 leukemia
  TGI: > 100 µM
NCI-H23 lung
  TGI: > 100 µM
NCI-H460 lung
  TGI: > 100 µM
NCI-H522 lung
  TGI: > 100 µM
NCI/ADR-RES ovarian
  TGI: > 100 µM
OVCAR-3 ovarian
  TGI: > 100 µM
OVCAR-5 ovarian
  TGI: > 100 µM
OVCAR-8 ovarian
  TGI: > 100 µM
PC-3 prostate
  TGI: > 100 µM
RPMI-8226 leukemia
  TGI: > 100 µM
RXF 393 renal
  TGI: > 100 µM
SF-268 CNS
  TGI: > 100 µM
SF-295 CNS
  TGI: > 100 µM
SF-539 CNS
  TGI: > 100 µM
SK-MEL-28 melanoma
  TGI: > 100 µM
SK-MEL-5 melanoma
  TGI: > 100 µM
SK-OV-3 ovarian
  TGI: > 100 µM
SN12C renal
  TGI: > 100 µM
SNB-19 CNS
  TGI: > 100 µM
SNB-75 CNS
  TGI: > 100 µM
SR leukemia
  TGI: > 100 µM
SW-620 colon
  TGI: > 100 µM
T-47D breast
  TGI: > 100 µM
TK-10 renal
  TGI: > 100 µM
UACC-257 melanoma
  TGI: > 100 µM
UACC-62 melanoma
  TGI: > 100 µM
UO-31 renal
  TGI: > 100 µM
